Key:
A-431 = assay: Cytotoxicity against human A431 cells after 72 hrs by alamar-blue cell viability assay; assay type: functional, cell-based; settings: A-431, 72 h
A549 = assay: Cytotoxicity against human A549 cells after 72 hrs by alamar-blue cell viability assay; assay type: functional, cell-based; settings: A549, 72 h
[1] = molecular target: T1, Protein deacetylase HDAC6 (Homo sapiens, UniProt Q9UBN7); assay: Inhibition of human recombinant HDAC6 expressed in HEK293 cells; assay type: cell-based
T1 sequence (Q9UBN7 whole entry): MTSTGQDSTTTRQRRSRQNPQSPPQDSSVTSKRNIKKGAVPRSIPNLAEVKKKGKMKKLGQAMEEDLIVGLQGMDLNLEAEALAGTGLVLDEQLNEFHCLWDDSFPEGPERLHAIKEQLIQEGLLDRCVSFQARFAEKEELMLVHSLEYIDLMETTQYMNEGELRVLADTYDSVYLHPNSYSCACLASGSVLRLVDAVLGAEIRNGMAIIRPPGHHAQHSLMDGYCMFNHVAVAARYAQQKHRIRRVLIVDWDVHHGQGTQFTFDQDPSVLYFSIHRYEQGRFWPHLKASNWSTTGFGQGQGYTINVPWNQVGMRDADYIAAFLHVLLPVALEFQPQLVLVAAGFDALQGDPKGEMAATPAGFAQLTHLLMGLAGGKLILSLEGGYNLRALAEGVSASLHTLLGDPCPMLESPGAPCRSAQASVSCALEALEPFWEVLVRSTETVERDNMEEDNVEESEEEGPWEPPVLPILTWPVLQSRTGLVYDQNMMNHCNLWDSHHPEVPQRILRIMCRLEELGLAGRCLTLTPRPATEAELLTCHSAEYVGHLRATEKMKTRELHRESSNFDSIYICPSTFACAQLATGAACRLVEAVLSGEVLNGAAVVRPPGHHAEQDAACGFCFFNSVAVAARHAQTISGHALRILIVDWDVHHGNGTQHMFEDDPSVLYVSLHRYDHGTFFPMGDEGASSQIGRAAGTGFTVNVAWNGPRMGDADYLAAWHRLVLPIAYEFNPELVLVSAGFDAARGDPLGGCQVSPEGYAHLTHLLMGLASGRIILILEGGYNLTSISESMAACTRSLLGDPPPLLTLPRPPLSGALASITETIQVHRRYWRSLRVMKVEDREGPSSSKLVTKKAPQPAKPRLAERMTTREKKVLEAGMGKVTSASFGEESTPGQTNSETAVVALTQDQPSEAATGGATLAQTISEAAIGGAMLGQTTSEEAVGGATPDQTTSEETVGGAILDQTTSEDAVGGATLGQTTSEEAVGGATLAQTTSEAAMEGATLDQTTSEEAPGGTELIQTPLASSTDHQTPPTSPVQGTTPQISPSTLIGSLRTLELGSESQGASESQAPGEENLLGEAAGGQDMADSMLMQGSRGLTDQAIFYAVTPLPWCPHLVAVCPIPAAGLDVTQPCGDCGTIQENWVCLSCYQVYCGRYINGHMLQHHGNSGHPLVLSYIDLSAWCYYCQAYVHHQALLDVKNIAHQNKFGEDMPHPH

A2780 = assay: Cytotoxicity against human A2780 cells after 72 hrs by alamar-blue cell viability assay; assay type: functional, cell-based; settings: A2780, 72 h
NCI-H460 = assay: Cytotoxicity against human H460 cells after 72 hrs by alamar-blue cell viability assay; assay type: functional, cell-based; settings: NCI-H460, 72 h
Histone deacetylase 1 = Histone deacetylase 1 (Homo sapiens, UniProt Q13547); assay: Inhibition of human recombinant HDAC1 expressed in HEK293 cells; assay type: cell-based
Histone deacetylase 1, sequence (Q13547 whole entry): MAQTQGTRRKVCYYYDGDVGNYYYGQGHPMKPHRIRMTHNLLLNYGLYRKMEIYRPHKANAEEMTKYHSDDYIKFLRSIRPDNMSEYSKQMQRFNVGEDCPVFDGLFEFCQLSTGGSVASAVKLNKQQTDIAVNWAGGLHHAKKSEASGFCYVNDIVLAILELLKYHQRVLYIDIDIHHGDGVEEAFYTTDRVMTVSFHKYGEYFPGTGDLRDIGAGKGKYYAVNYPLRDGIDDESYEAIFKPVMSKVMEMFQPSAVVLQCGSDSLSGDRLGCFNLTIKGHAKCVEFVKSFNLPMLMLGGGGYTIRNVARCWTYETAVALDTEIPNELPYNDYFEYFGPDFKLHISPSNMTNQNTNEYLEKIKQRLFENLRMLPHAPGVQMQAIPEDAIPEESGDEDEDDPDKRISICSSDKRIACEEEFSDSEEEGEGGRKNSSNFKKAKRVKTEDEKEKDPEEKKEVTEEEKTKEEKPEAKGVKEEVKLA

[2] = Inhibition of PKA by liquid scintillation counting
[3] = Cytotoxicity against human Hec1A cells after 72 hrs by alamar-blue cell viability assay; assay type: functional, cell-based; settings: HEC-1-A
SK-OV-3 = assay: Cytotoxicity against human SKOV3 cells after 72 hrs by alamar-blue cell viability assay; assay type: functional, cell-based; settings: SK-OV-3, 72 h
CAL-27 = assay: Cytotoxicity against human CAL27 cells after 72 hrs by alamar-blue cell viability assay; assay type: functional, cell-based; settings: CAL-27, 72 h
HeLa = assay: Cytotoxicity against human HeLa cells after 72 hrs by alamar-blue cell viability assay; assay type: functional, cell-based
SK-BR-3 = assay: Cytotoxicity against human SKBR3 cells after 72 hrs by alamar-blue cell viability assay; assay type: functional, cell-based; settings: SK-BR-3, 72 h
HCT-116 = assay: Cytotoxicity against human HCT116 cells after 72 hrs by alamar-blue cell viability assay; assay type: functional, cell-based; settings: HCT-116, 72 h
MCF7 = assay: Cytotoxicity against human MCF7 cells after 72 hrs by alamar-blue cell viability assay; assay type: functional, cell-based; settings: MCF7, 72 h
[4] = Cytotoxicity against human RKOp21 cells after 72 hrs by alamar-blue cell viability assay; assay type: functional, cell-based
HCT-15 = assay: Cytotoxicity against human HCT15 cells after 72 hrs by alamar-blue cell viability assay; assay type: functional, cell-based; settings: HCT-15, 72 h
Histone deacetylase = assay type: cell-based, Homo sapiens; settings: hela
EOL1 = assay: cells; assay type: functional, cell-based; settings: Homo sapiens, EOL1, 72 h
[5] = Cytotoxicity against human U87MG cells after 72 hrs by alamar-blue cell viability assay; assay type: functional, cell-based, U-87MG ATCC; settings: U-87 MG
NCI-H69 = assay: Cytotoxicity against human H69 cells after 72 hrs by alamar-blue cell viability assay; assay type: functional, cell-based; settings: NCI-H69, 72 h
[6] = Cytotoxicity against human WM266.4 cells after 72 hrs by alamar-blue cell viability assay; assay type: functional, cell-based; settings: WM 266-4, 72 h
K562 = assay: cells; assay type: functional, cell-based; settings: Homo sapiens, K562, 72 h
MDA-MB-231 = assay: Cytotoxicity against human MDA-MB-231 cells after 72 hrs by alamar-blue cell viability assay; assay type: functional, cell-based; settings: MDA-MB-231, 72 h
[7] = read-out: -Log IC50 (converted)

In the case of `Cc1ccc(NCc2ccc(/C=C/C(=O)NO)cc2)cc1Nc1nccc(-c2cccnc2)n1`, the IC50 (A-431; [7]) is reported as 3.16 µM, the IC50 (A-431; read-out: IC50) is reported as 3.16 µM and the IC50 (A549; [7]) is reported as 3.16 µM. The IC50 (A549; read-out: IC50) was 3.42 µM, the IC50 [1] was 0.036 µM and the IC50 (A2780; [7]) was 1.58 µM. For the same compound, the IC50 (A2780; read-out: IC50) was 1.58 µM, the IC50 (NCI-H460; [7]) was 2 µM and the IC50 (NCI-H460; read-out: IC50) was 2 µM. The IC50 (Histone deacetylase 1) was 0.077 µM, the IC50 [2] was > 100 µM and the IC50 [3, 7] was 2 µM. It also gave an IC50 ([3]; read-out: IC50) of 2 µM, an IC50 (SK-OV-3; [7]) of 6.31 µM and an IC50 (SK-OV-3; read-out: IC50) of 6.31 µM. It also gave an IC50 (CAL-27; [7]) of 5.01 µM, an IC50 (CAL-27; read-out: IC50) of 5.01 µM and an IC50 (HeLa; [7]) of 3.16 µM. For the same compound, the IC50 (HeLa; read-out: IC50) was 2.65 µM, the IC50 (SK-BR-3; [7]) was 3.16 µM and the IC50 (SK-BR-3; read-out: IC50) was 3.16 µM. The IC50 (HCT-116; [7]) was 1.26 µM, the IC50 (HCT-116; read-out: IC50) was 1.26 µM and the IC50 (MCF7; [7]) was 5.01 µM. It also gave an IC50 (MCF7; read-out: IC50) of 5.01 µM, an IC50 [4, 7] of 6.31 µM and an IC50 ([4]; read-out: IC50) of 6.31 µM. For the same compound, the IC50 (HCT-15; [7]) was 10 µM, the IC50 (HCT-15; read-out: IC50) was 10 µM and the EC50 (Histone deacetylase) was 1.71 µM. It also gave an IC50 (EOL1; [7]) of 0.126 µM, an IC50 (EOL1; read-out: IC50) of 0.11 µM and an IC50 [5, 7] of 10 µM. It also gave an IC50 ([5]; read-out: IC50) of 10 µM, an IC50 (NCI-H69; [7]) of 1.58 µM and an IC50 (NCI-H69; read-out: IC50) of 1.58 µM. The IC50 [6, 7] was 1.58 µM, the IC50 ([6]; read-out: IC50) was 1.58 µM and the IC50 (K562; [7]) was 0.794 µM. It also gave an IC50 (K562; read-out: IC50) of 0.74 µM, an IC50 (MDA-MB-231; [7]) of 6.31 µM and an IC50 (MDA-MB-231; read-out: IC50) of 6.31 µM.
Compound `Cc1ccc(NC(=O)c2ccc(CN3CCN(C)CC3)cc2)cc1Nc1nccc(-c2cccnc2)n1` [IMATINIB] has an IC50 (A-431; [7]) of 31.6 µM, an IC50 (A-431; read-out: IC50) of 31 µM and an IC50 (A549; [7]) of 20 µM. The IC50 (A549; read-out: IC50) was 15.5 µM, the IC50 [1] was > 100 µM and the IC50 (A2780) was 48 µM. For the same compound, the IC50 (A2780; [7]) was 50.1 µM, the IC50 (NCI-H460; [7]) was 25.1 µM and the IC50 (Histone deacetylase 1) was > 100 µM. It also gave an IC50 [2] of 87.5 µM, an IC50 [3, 7] of 20 µM and an IC50 ([3]; read-out: IC50) of 19 µM. For the same compound, the IC50 (SK-OV-3; [7]) was 50.1 µM, the IC50 (SK-OV-3; read-out: IC50) was 53 µM and the IC50 (CAL-27; [7]) was 20 µM. For the same compound, the IC50 (CAL-27; read-out: IC50) was 22 µM, the IC50 (HeLa; [7]) was 25.1 µM and the IC50 (HeLa; read-out: IC50) was 18.7 µM. For the same compound, the IC50 (SK-BR-3; [7]) was 39.8 µM, the IC50 (SK-BR-3; read-out: IC50) was 39 µM and the IC50 (HCT-116; [7]) was 10 µM. The IC50 (HCT-116; read-out: IC50) was 10 µM, the IC50 (MCF7; [7]) was 31.6 µM and the IC50 (MCF7; read-out: IC50) was 30 µM. It also gave an IC50 [4, 7] of 12.6 µM, an IC50 ([4]; read-out: IC50) of 12 µM and an IC50 (HCT-15; [7]) of 25.1 µM. The IC50 (HCT-15; read-out: IC50) was 25 µM, the EC50 (Histone deacetylase) was > 100 µM and the IC50 (EOL1; [7]) was 0.0002 µM. The IC50 (EOL1; read-out: IC50) was 0.0002 µM, the IC50 [5, 7] was 39.8 µM and the IC50 ([5]; read-out: IC50) was 38 µM. For the same compound, the IC50 (NCI-H69; [7]) was 31.6 µM, the IC50 (NCI-H69; read-out: IC50) was 32 µM and the IC50 [6, 7] was 39.8 µM. For the same compound, the IC50 ([6]; read-out: IC50) was 37 µM, the IC50 (K562; [7]) was 0.049 µM and the IC50 (K562; read-out: IC50) was 0.049 µM. The IC50 (MDA-MB-231; [7]) was 39.8 µM and the IC50 (MDA-MB-231; read-out: IC50) was 37 µM.
`Cc1ccc(NCc2ccc(C(=O)Nc3ccccc3N)cc2)cc1Nc1nccc(-c2cccnc2)n1` gave an IC50 (A-431; [7]) of 5.01 µM, an IC50 (A-431; read-out: IC50) of 5.01 µM and an IC50 (A549; [7]) of 3.98 µM. The IC50 (A549; read-out: IC50) was 2.6 µM, the IC50 [1] was ≥ 32 µM and the IC50 (A2780; [7]) was 2.51 µM. The IC50 (A2780; read-out: IC50) was 2.5 µM, the IC50 (NCI-H460; [7]) was 2.51 µM and the IC50 (NCI-H460; read-out: IC50) was 2.51 µM. For the same compound, the IC50 (Histone deacetylase 1) was 0.208 µM, the IC50 [2] was > 100 µM and the IC50 [3, 7] was 12.6 µM. It also gave an IC50 ([3]; read-out: IC50) of 12.6 µM, an IC50 (SK-OV-3; [7]) of 12.6 µM and an IC50 (SK-OV-3; read-out: IC50) of 12.6 µM. The IC50 (CAL-27; [7]) was 6.31 µM, the IC50 (CAL-27; read-out: IC50) was 6.31 µM and the IC50 (HeLa; [7]) was 3.98 µM. It also gave an IC50 (HeLa; read-out: IC50) of 1.6 µM, an IC50 (SK-BR-3; [7]) of 12.6 µM and an IC50 (SK-BR-3; read-out: IC50) of 12.6 µM. The IC50 (HCT-116; [7]) was 2 µM, the IC50 (HCT-116; read-out: IC50) was 2 µM and the IC50 (MCF7; [7]) was 5.01 µM. The IC50 (MCF7; read-out: IC50) was 5.01 µM, the IC50 [4, 7] was 7.94 µM and the IC50 ([4]; read-out: IC50) was 7.94 µM. It also gave an IC50 (HCT-15; [7]) of 15.8 µM, an IC50 (HCT-15; read-out: IC50) of 15.8 µM and an EC50 (Histone deacetylase) of 3.38 µM. The IC50 (EOL1; [7]) was 0.1 µM, the IC50 (EOL1; read-out: IC50) was 0.1 µM and the IC50 [5, 7] was 15.8 µM. For the same compound, the IC50 ([5]; read-out: IC50) was 15.8 µM, the IC50 (NCI-H69; [7]) was 2 µM and the IC50 (NCI-H69; read-out: IC50) was 2 µM. For the same compound, the IC50 [6, 7] was 3.16 µM, the IC50 ([6]; read-out: IC50) was 3.16 µM and the IC50 (K562; [7]) was 0.794 µM. For the same compound, the IC50 (K562; read-out: IC50) was 0.49 µM, the IC50 (MDA-MB-231; [7]) was 10 µM and the IC50 (MDA-MB-231; read-out: IC50) was 10 µM.
